The values below come from patent US10548911B2, “Small molecule anti-scarring agents” (UNIVERSITY OF ROCHESTER, priority 2014, dated 2020).

Assay [1] relates to TGFβ-induced luciferase activity. Briefly: Spectrum collection small molecule screen with TGFβ-dependent SBE-luciferase HEK293FT reporter cell line. Type of assay: cell-based, human. The settings on record: HEK293FT-luc reporter line. The source says:
The minimal thymidine kinase promoter was amplified by PCR with the following forward and reverse primers, of which the forward primer contained four tandem Smad binding elements (SBE):
Restriction sites in the primers are underlined. The resultant PCR product was TOPO cloned (Invitrogen) and the correct insert was verified by DNA sequencing. The construct was digested with SacI-HindIII and the SBEx4-TK insert was purified and ligated with the pGL4.15 vector (Promega). Clones were verified by restriction digest and then tested for TGFβ responsiveness in transient transfections of 293FT cells. […] Clones were selected by treatment with 200 μg/ml hygromycin. 20 clones were selected and screened for TGFβ-induced luciferase activity. One clone that was robustly responsive was subsequently used in the small molecule screen.
Excessive scarring results from the formation of too many myofibroblasts and the production of too much extracellular matrix material such as collagen. Since TGFβ drives the formation of myofibroblasts in part through activating the Smad pathway, a reporter construct was designed to serve as a measure of TGFβ-induced Smad activity (FIG. 1A). Four tandem Smad binding elements (SBE) were inserted upstream of the minimal thymidine kinase promoter. The SBEx4-TK promoter was inserted into the pGL4.15 vector which contains a destabilized firefly luciferase gene and the hygromycin resistance gene. The pSBEx4-TK-luc-Hygro plasmid was then introduced into HEK293FT cells by lipofection. Stable clones were generated and screened for TGFβ induced luciferase activity. One clone was selected that consistently gave a 15 to 20-fold induction of luciferase activity when cells were treated with TGFβ for 24 hours (FIG. 1B).
To find compounds that inhibit TGFβ activity and thus may be novel anti-scarring compounds, the Spectrum collection of 2,300 small molecules was screened with the cell line. […] Salinomycin, an antibiotic produced from Streptomyces albus is used as coccidiostat agent in animal feed (Knirschova et al., “Multiple regulatory genes in the salinomycin biosynthetic gene cluster of Streptomyces albus CCM 4719,” Folia Microbiologica 52:359-365 (2007), which is hereby incorporated by reference in its entirety). […] Thus, further investigation was made to assess the use of salinomycin as an anti-scarring agent.

For assay [2], the system named is TGFβ-induced SBE-luciferase activity. Briefly: Secondary dual luciferase screen (SBE-luciferase normalized to constitutive Renilla luciferase). Type of assay: cell-based, human. Particulars: for inhibition of luciferase expression, dose responsiveness: secondary dual luciferase screen, several doses (low micromolar). The method, then:
FIG. 1A is a diagram of Smad-dependent reporter construct. Four tandem Smad binding elements (SBE) were inserted upstream of the minimal Thymidine Kinase (TK) promoter. Downstream of the promoter is a destabilized version of the firefly luciferase gene (luc2P) present in the pLuc2P-Hygro plasmid which also harbors the hygromycin resistance gene. The plasmid was introduced into HEK293FT cell line and individual colonies were selected with hygromycin (200 ug/ml) to develop a Smad/TGFβ dependent-luciferase reporter cell line. FIG. 1B is a graph illustrating the response of the reporter cell line to 1 ng/ml treatment of TGFβ for 20 hours, which results in an approximately 20-fold increase of luciferase activity.
They are: Benzbromarone (“BZB”), Bithionate sodium (“BTS”), Piplartine (piperlongumine) (“PPT”), Amsacrine (“ASC”), and Alexidine (“AXD”). A secondary luciferase screening assay was performed to determine specificity and dose responsiveness of these compounds in comparison to salinomycin (“SNC”). The secondary screen utilizes dual luciferase technology that includes the above mentioned SBE-luciferase in addition to a Renilla luciferase that is under control of the constitutive SV40 promoter. Therefore the SBE-luciferase activity can be normalized to the Renilla luciferase activity to control for toxicity and non-specific effects. The secondary screen can thus be used to remove small molecules that display overt toxicity and/or non-specific effects on the primary assay.

Another assay has as its system phospho-Smad2. Briefly: Western blot of phospho-Smad2/3 in TGFβ-treated human orbital fibroblasts. Format: cell-based. The method, then:
To further characterize the molecular mechanisms whereby salinomycin (and other polyether antibiotics) blocks TGFβ induced myofibroblast formation, activation kinetics were analyzed for some of the key mediators of TGFβ signaling (Weiss et al., “The TGFbeta superfamily signaling pathway,” Wiley Interdiscip. Rev. Dev. Biol. 2:47-63 (2013), which is hereby incorporated by reference in its entirety). Since salinomycin was first identified as a putative anti-scarring molecule by its ability to block TGFβ-induced Smad activity, the levels of phospho-Smad2 were analyzed by Western blot in cells treated with TGFβ or TGFβ plus salinomycin. […] The experiment was repeated, with samples being incubated for extended periods of time including 5, 24, 48 and 72 h hours (FIG. 5A, top panel).

Assay [3] has as its system TGFβ-induced myofibroblast formation in human fibroblasts. Description: Western blot of myofibroblast markers αSMA and calponin in TGFβ-treated human (TED orbital) fibroblasts. Particulars: 250 nM, 72 hours. Type of assay: cell-based.

“Also recorded” adds a separate entry of the source.

In the case of `CC[C@@H](C(=O)[C@@H](C)[C@@H](O)[C@H](C)[C@@H]1O[C@@H]([C@@H](CC)C(=O)O)CC[C@@H]1C)[C@H]1O[C@]2(C=C[C@@H](O)[C@]3(CC[C@@](C)([C@H]4CC[C@](O)(CC)[C@H](C)O4)O3)O2)[C@H](C)C[C@@H]1C` [salinomycin], in assay [1], the “inhibition of TGFβ-induced luciferase activity, initial screen” value is on record as “blocked TGFβ-induced luciferase activity; also recorded: particularly potent at inhibiting luciferase activity”. Moreover, the “TGFβ-induced SBE-luciferase activity level” value in assay [2] (1 uM) is given as “below baseline levels”. Also, the “inhibition of luciferase expression, dose responsiveness” value in assay [2] is recorded as “dose dependent decrease; also recorded: dose responsive decrease”; in assay [2] (listed as SNC), “substantially inhibited luciferase expression”. In addition, the “reduction of TGFβ induced phospho-Smad2/3 levels” value is recorded as 2 fold with phospho-Smad2 (250 nM, 5 hours); 8-10 fold in the assay on phospho-Smad2 (250 nM, 24 hours); 5 fold with phospho-Smad2 (250 nM, 24 hours, listed as Salinomycin). Also, the “reduction of phospho-Smad2 levels compared to TGFβ alone” value in the assay with phospho-Smad2 (250 nM, 5 hours) turned out to be 80%. Also, the phospho-Smad2 levels entry in the assay on phospho-Smad2 (early time points (30 sec-1 hour), TGFβ) is reported as “did not affect phospho-Smad2 levels”. Also, the entries for the “TGFβ induced expression of αSMA and calponin” value in assay [3] (MKK6(glu) expressing cells) and in assay [3] (control GFP expressing cells) were “attenuated the ability of salinomycin to block” and “blocked their induction”, respectively.
